One molecule from patent US9492501B2, “Antiviral agent” (priority 2009, dated 2016) can be followed below.

As usually defined, the inhibition is the percentage by which the read-out fell short of the control. A lower inhibition goes with a weak effect.

Assay [1] deals with HIV-1 (proviral genome NL4.3, strain LAI). Nature of the assay: HIV-1 replication, ELISA of viral p24 capsid protein in supernatant of infected Jurkat 1G5 cells. The assay is classed as cell-based. As to conditions: Human immunodeficiency virus 1; 10 μM AZT, treatment 24 hours, p24 in supernatant, Jurkat 1G5. The source says:
(§1) Method: a Jurkat CD4+ T lymphocyte cell line (line 1G5) having integrated into its genome a construction comprising a luciferase reporter gene the expression of which is controlled by the HIV-1 promoter (HIV-1 LTR; HIV-LTR Jurkat line) was used. The measurement of luciferase activity from the cell extracts therefore makes it possible to estimate the HIV-1 transcriptional activity.
(§2) The Jurkat HIV-LTR and Jurkat 1G5 lines were transfected by means of the DEAE-dextran technique with the proviral genome NL4.3 (complete HIV-1 genome, strain LAI).
(§3) The HIV-LTR Jurkat and 1G5 Jurkat lines thus infected, are treated 24 hours later with HPBP/PON protein complexes or with purified PON or HPBP proteins at a final concentration of 2 μg/mL of medium (52 nM of protein alone).
(§4) The cells and the cell supernatant are sampled after treatment for 24 hours.
(§5) The transcriptional activity is measured by carrying out a luciferase test. The intensity of the HIV-1 replication is measured by means of ELISA assay of the quantity of viral p24 capsid proteins present in the supernatant of the cell cultures of the infected 1G5 lines [Rohr, O., et al. (2000). The Journal of Biological Chemistry 275, 2654-2660]. […]
(§6) The transcriptional activity and inhibition of the replication are measured as described in Example 6.
For orientation: In an ELISA, binding on a coated surface is turned into a signal by an enzyme label.

Assay [2] has as its system HIV-1 promoter (HIV-1 LTR). Nature of the assay: HIV-1 transcriptional activity, luciferase test in HIV-LTR Jurkat line. The assay is classed as cell-based. As to conditions: 10 μM AZT, treatment 24 hours, FIG. 5 (luciferase activity).
Source text: as §1, §2, §3, §4, §5, §6

In turn, `Cc1cn([C@H]2C[C@H](N=[N+]=[N-])[C@@H](CO)O2)c(=O)[nH]c1=O` [AZT, zidovudine, reference compound] displayed an inhibition at 10 µM in assay [1] of 60%. Moreover, in assay [2], the “effect on the replication of the virus (FIG. 5)” value is recorded as “no effect”.
